Legend:
[1] = molecular target: PDE 7 (phosphodiesterase VII) (Homo sapiens (Human), UniProt Q13946); assay: PDE 7 inhibiting effect (3H-cAMP hydrolysis, PDE 7 active fraction from MOLT-4 cells); format: biochemical; details: PDE 7 fraction from MOLT-4 cells, 0.064 μM cAMP, 10 μM rolipram, 2 hours at 25° C.; read-out: PDE7 IC50
How it was run: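 PDE7 taken from the soluble fraction of human MOLT-4 T cells (homogenised in pH 7.5 Tris buffer, 100,000×G spin), partially purified on HiTrap Q with a 0–0.8 M NaCl gradient. Inhibition measured as ³H-cAMP hydrolysis, with product separated using Sephadex-QAE in 10 mM HEPES-Na pH 7.0.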

[2] = molecular target: PDE 4 (phosphodiesterase IV); assay: PDE 4 inhibiting effect (3H-cAMP hydrolysis, PDE 4 active fraction from Balb/c mouse liver); format: biochemical; details: PDE 4 fraction from Balb/c mice liver, 0.064 μM cAMP, 2 hours at 25° C.; read-out: PDE4 IC50
How it was run: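 PDE4 was taken from the soluble liver fraction of male Balb/c mice (12 weeks), purified on DEAE sepharose with a sodium acetate gradient. Inhibition was measured as hydrolysis of 3H-cAMP. The reaction was followed by Sephadex-QAE treatment in HEPES-Na pH 7.0.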

PDE 7 (phosphodiesterase VII), sequence (Q13946 whole entry): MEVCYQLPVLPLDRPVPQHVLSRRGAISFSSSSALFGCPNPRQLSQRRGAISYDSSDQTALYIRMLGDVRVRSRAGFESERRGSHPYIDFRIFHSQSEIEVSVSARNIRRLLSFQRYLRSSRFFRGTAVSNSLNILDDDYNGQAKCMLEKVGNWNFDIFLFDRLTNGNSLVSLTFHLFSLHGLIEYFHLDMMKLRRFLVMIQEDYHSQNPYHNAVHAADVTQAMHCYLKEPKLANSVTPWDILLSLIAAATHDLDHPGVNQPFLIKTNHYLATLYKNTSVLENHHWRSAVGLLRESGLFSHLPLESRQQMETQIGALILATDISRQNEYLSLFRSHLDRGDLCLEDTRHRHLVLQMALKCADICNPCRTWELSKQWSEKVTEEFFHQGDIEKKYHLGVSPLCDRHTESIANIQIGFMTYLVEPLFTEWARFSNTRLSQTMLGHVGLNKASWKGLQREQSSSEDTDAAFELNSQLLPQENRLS

| SMILES | IC50 [1] | IC50 [2] |
| --- | --- | --- |
| CCN1C(=O)CN(CCNC(=O)c2cc3c(C)nn(C4CCCCC4)c3s2)C1=O [Example 316, 1-Cyclohexyl-N-[2-(3-ethyl-2,4-dioxo-1-imidazolidinyl)ethyl]-3-methyl-1H-thieno[2,3-c]pyrazole-5-carboxamide] | 0.097 µM | 15 µM |
| Cc1nn(C2CCCCC2)c2sc(C(=O)NCCN3CC(=O)N(C)C3=O)cc12 [Example 317, 1-Cyclohexyl-3-methyl-N-[2-(3-methyl-2,4-dioxo-1-imidazolidinyl)-ethyl]-1H-thieno[2,3-c]pyrazole-5-carboxamide] | 0.067 µM | 12 µM |
| Cc1nn(C2CCCCC2)c2sc(C(=O)N[C@H](C)CN3C(=O)CNC3=O)cc12 [Example 325, 1-Cyclohexyl-N-[(1R)-2-(2,5-dioxo-1-imidazolidinyl)-1-methylethyl]-3-methyl-1H-thieno[2,3-c]pyrazole-5-carboxamide] | 0.034 µM | 4 µM |
| CC[C@H](CN1C(=O)CNC1=O)NC(=O)c1cc2c(C)nn(C3CCCCC3)c2s1 [Example 331, 1-Cyclohexyl-N-{(1R)-1-[(2,5-dioxo-1-imidazolidinyl)methyl]propyl}-3-methyl-1H-thieno[2,3-c]pyrazole-5-carboxamide] | 0.029 µM | 4.9 µM |
| Cc1nn(C2CCCCC2)c2sc(C(=O)NCC(C)(C)CN3C(=O)CNC3=O)cc12 [Example 339, 1-Cyclohexyl-N-[3-(2,5-dioxo-1-imidazolidinyl)-2,2-dimethylpropyl]-3-methyl-1H-thieno[2,3-c]pyrazole-5-carboxamide] | 0.02 µM | 5.1 µM |
| Cc1nn(C2CCCCC2)c2sc(C(=O)Nc3ccc(N4CCNC(=O)C4)cc3)cc12 [Example 341, 1-Cyclohexyl-3-methyl-N-[4-(3-oxo-1-piperazinyl)phenyl]-1H-thieno[2,3-c]pyrazole-5-carboxamide] | 0.005 µM | 1.8 µM |
| Cc1nn(C2CCOCC2)c2sc(C(=O)Nc3ccc(N4CCNC(=O)C4)cc3)cc12 [Example 342, 3-Methyl-N-[4(3-oxo-1-piperazinyl)phenyl]-1-tetrahydro-2H-pyran-4-yl-1H-thieno[2,3-c]pyrazole-5-carboxamide] | 0.028 µM | 4.6 µM |
| Cc1nn(C2CCOCC2)c2sc(C(=O)N[C@H]3CC[C@H](C(=O)N(C)C)CC3)cc12 [Example 349, N-{trans-4-[(Dimethylamino)carbonyl]cyclohexyl}-3-methyl-1-tetrahydro-2H-pyran-4-yl-1H-thieno[2,3-c]pyrazole-5-carboxamide] | 0.078 µM | 2.8 µM |
| CC(=O)N1CCN(C[C@H]2CC[C@H](NC(=O)c3cc4c(C)nn(C5CCOCC5)c4s3)CC2)CC1 [Example 360, N-{trans-4-[(4-Acetyl-1-piperazinyl)methyl]cyclohexyl}-3-methyl-1-tetrahydro-2H-pyran-4-yl-1H-thieno[2,3-c]pyrazole-5-carboxamide] | 0.057 µM | 7.9 µM |
| Cc1nn(C2CCCCC2)c2sc(C(=O)Nc3ccc(N4CCC(O)CC4)nc3)cc12 [Example 370, 1-Cyclohexyl-N-[6-(4-hydroxy-1-piperidinyl)-3-pyridinyl]-3-methyl-1H-thieno[2,3-c]pyrazole-5-carboxamide] | 0.0087 µM | 4.1 µM |
| Cc1nn(C2CCCCC2)c2sc(C(=O)Nc3ccc(N4CCC(O)CC4)c(F)c3F)cc12 [Example 371, 1-Cyclohexyl-N-[2,3-difluoro-4-(4-hydroxy-1-piperidinyl)phenyl]-3-methyl-1H-thieno[2,3-c]pyrazole-5-carboxamide] | 0.017 µM | 3.6 µM |
| Cc1cc(NC(=O)c2cc3c(C)nn(C4CCCCC4)c3s2)ccc1N1CCC(O)CC1 [Example 372] | 0.011 µM | 4 µM |
| Cc1nn(C2CCCCC2)c2sc(C(=O)Nc3ccc(N4CCC(O)CC4)c(C#N)c3)cc12 [Example 373, N-[3-Cyano-4-(4-hydroxy-1-piperidinyl)phenyl]-cyclohexyl-3-methyl-1H-thieno[2,3-c]pyrazole-5-carboxamide] | 0.0045 µM | 3.4 µM |
| Cc1nn(C2CCCCC2)c2sc(C(=O)Nc3ccc(N4CCC(O)CC4)c(C(=O)O)c3)cc12 [Example 375] | 0.0072 µM | 0.93 µM |
| Cc1nn(C2CCCCC2)c2sc(C(=O)Nc3ccc(C(=O)N4CCC(O)CC4)nc3)cc12 [Example 378, 1-Cyclohexyl-N-{6-[(4-hydroxy-1-piperidinyl)carbonyl]-3-pyridinyl}-3-methyl-1H-thieno[2,3-c]pyrazole-5-carboxamide] | 0.044 µM | 2.5 µM |
| Cc1nn(C2CCCCC2)c2sc(C(=O)Nc3ccc(C(=O)NCCO)nc3)cc12 [Example 379, 1-Cyclohexyl-N-(6-{[(2-hydroxyethyl)amino]carbonyl}-3-pyridinyl)-3-methyl-1H-thieno[2,3-c]pyrazole-5-carboxamide] | 0.013 µM | 1.2 µM |
| Cc1nn(C2CCCCC2)c2sc(C(=O)Nc3ccc(C(=O)N4CCN(C)CC4)nc3)cc12 [Example 380, 1-Cyclohexyl-3-methyl N-{6-[(4-methyl-1-piperazinyl)carbonyl]-3-pyridinyl}-1H-thieno[2,3-c]pyrazole-5-carboxamide] | 0.056 µM | 1.5 µM |
| Cc1nn(C2CCCCC2)c2sc(C(=O)Nc3ccc(C(=O)NCCN(C)C)nc3)cc12 [Example 381] | 0.022 µM | 0.67 µM |
| Cc1nn(C2CCCCC2)c2sc(C(=O)Nc3ccc(C(=O)N[C@H]4CC[C@H](O)CC4)nc3)cc12 [Example 382, 1-Cyclohexyl-N-(6-{[(trans-4-hydroxycyclohexyl)amino]carbonyl}-3-pyridinyl)-3-methyl-1H-thieno[2,3-c]pyrazole-5-carboxamide] | 0.025 µM | 0.62 µM |
| Cc1nn(C2CCCCC2)c2sc(C(=O)Nc3ccc(C(=O)N4CCCN(C)CC4)nc3)cc12 [Example 383] | 0.074 µM | 2.4 µM |
| CC(=O)N1CCN([C@H]2CC[C@H](NC(=O)c3cc4c(C)nn(C5CCOCC5)c4s3)CC2)CC1 [Example 395, N-[trans-4-(4-Acetyl-1-piperazinyl)cyclohexyl]-3-methyl-1-tetrahydro-2H-pyran-4-yl-1H-thieno[2,3-c]pyrazole-5-carboxamide] | 0.019 µM | 1.4 µM |
| Cc1nn(C2CCOCC2)c2sc(C(=O)N[C@H]3CC[C@H](N4CCN(S(C)(=O)=O)CC4)CC3)cc12 [Example 396, 3-Methyl-N-{trans-4-[4-(methylsulfonyl)-1-piperazinyl]cyclohexyl}-1-tetrahydro-2H-pyran-4-yl-1H-thieno[2,3-c]pyrazole-5-carboxamide] | 0.022 µM | 0.9 µM |
| Cc1nn(C2CCOCC2)c2sc(C(=O)N[C@H]3CC[C@H](N4C[C@@H](C)O[C@@H](C)C4)CC3)cc12 [Example 402, N-[trans-4-(cis-2,6-Dimethylmorpholinyl)cyclohexyl]-3-methyl-1-tetrahydro-2H-pyran-4-yl-1H-thieno[2,3-c]pyrazole-5-carboxamide] | 0.019 µM | 7.3 µM |
| Cc1nn(C2CCCCC2)c2sc(C(=O)Nc3ccc(CO)nc3)cc12 [Example 404, 1-Cyclohexyl-N-[6-(hydroxymethyl)-3-pyridinyl]-3-methyl-1H-thieno[2,3-c]pyrazole-5-carboxamide] | 0.032 µM | 3.5 µM |

Reference: patent US8901315B2, “Thienopyrazole derivative having PDE7 inhibitory activity” (Daiichi Sankyo Company, Limited, priority 2004, dated 2014)
